Measured values: PMC9619402 (Journal of Medicinal Chemistry, 2022)
Values after ≈ are worked out from the molar mass of the structure shown. Like-named read-outs stand apart in the source and are kept apart here. Marks after values point to notes of the source that are not given here.

How the values were obtained:
[1] = molecular target: T1, LIMK1 (NanoLuc LIMK1 kinase fusion) (Homo sapiens, UniProt P53667); type: cell-based; conditions: HEK293 cells, 2 h; mean ± SEM
T1 construct: host or cells: HEK293
Procedure: (§1) HEK293 cells were resuspended in growth media following routine trypsinization, neutralization, and sedimentation techniques. Cell density was adjusted to 1 ×10^5 cells/mL for each transfection in a total of 25 mL media. The transfection mix was added directly to the cells and mixed gently by inversion. The cells were then plated into T-75 tissue culture flasks and incubated for 20 h.
(§2) Kit components were purchased from Promega (Hampshire, U.K.). […] NanoBRET Tracer #10 (27.5 μL) was diluted in 192.5 μL of DMSO for use as a positive control, which was further diluted with 880 μL of tracer dilution buffer. For negative control, 20 μL of DMSO was added to 80 μL of tracer dilution buffer. LIMK1/2-transfected HEK293 cells were trypsinized, centrifuged, and resuspended in 10 mL of Opti-MEM. Extracellular NanoLuc inhibitor was added at 1:10,000 dilution to the cells, after which 85 μL of cells/well were plated into flat-bottomed, white, 96-well plates. For positive control wells, 5 μL of NanoBRET Tracer #10 was added to wells without compound. For negative controls, the DMSO/tracer dilution buffer solution was added to wells without compound. For test compounds, 10 μL of diluted compounds from the intermediate plate were added in duplicate or DMSO (for control wells) at a final concentration of 0.5% DMSO in Opti-MEM. Plates were incubated at 37 °C and 5% CO2 for 2 h. […] A solution of Nano-Glo substrate was made consisting of 72 μL of Nano-Glo substrate and 11.93 mL of Opti-MEM (without phenol red) and mixed gently by inversion 5–10 times.

[2] = molecular target: T2, LIMK2 (NanoLuc LIMK2 kinase fusion) (Homo sapiens, UniProt P53671); type: cell-based; conditions: HEK293 cells, 2 h; mean ± SEM
T2 construct: host or cells: HEK293
Procedure: as §1, §2

[3] = molecular target: PAK pLIMK2 (PAK-phosphorylated LIMK2) (Homo sapiens, UniProt P53671); type: biochemical; conditions: 6 nM LIMK2 + 0.2 nM PAK1 kinase domain; mean ± SEM
[4] = tested on: p-cofilin levels in SH-SY5Y cells; test: cells; conditions: Homo sapiens, 2 h, read-out: AlphaLISA pIC50 p-cofilin (converted)
Procedure: SH-SY5Y cells were plated into a 96-well plate at 20,000 cells/well. The next day, compounds were prepared in an 8-point, 3-fold serial dilution in DMSO and then further diluted to 20-fold in DMEM/F12 with 10% FBS, 1% antibiotics. SH-SY5Y cell media was replaced with fresh DMEM/F12 media containing 10% FBS and 1% antibiotics. Compounds were added to the SH-SY5Y cells in duplicate at a final compound concentration of 10 μM to 3 nM. LIMKi3 (10 μM) was used as a positive control and 0.5% DMSO was used as a negative control. Cells were placed in the incubator for 2 h, after which the media was removed, and the cells were lysed using 50 μL of AlphaLISA 1× lysis buffer (Perkin Elmer) containing protease inhibitor cocktail (Sigma-Aldrich, Dorset, U.K.) and Pierce phosphatase inhibitor cocktail (Thermofisher, U.K.). Cells were placed on a plate shaker at 350 rpm at RT. Ten microliters of total cell lysate was then transferred to a clean, flat-bottom, white 384-well plate. An acceptor bead solution was made consisting of reaction buffer 1, reaction buffer 2, activation buffer, and acceptor beads from the p-Cofilin SureFire Ultra assay kit (Perkin Elmer, Cat# ALSU-PCOF-A500). To each well in the assay, 5 μL of the acceptor mix was added to the wells under dim light; the plate was placed on a plate shaker for 2 min at 450 rpm, centrifuged briefly, and the plate was incubated at RT for 1 h. A donor solution, consisting of dilution buffer and donor beads, was added at 5 μL/well, mixed on a plate shaker, centrifuged briefly, and incubated at RT for 1 h. Finally, the plate was read on a Pherastar reader (BMG Labtech Ltd., Aylesbury, U.K.) using an AlphaLISA cartridge and AlphaLISA plate settings.

[5] = molecular target: LIMK1 (LIMK1_330–637, kinase catalytic domain) (Homo sapiens, UniProt P53667); conditions: for preference between LIMK1 and LIMK2: RapidFire, LIMK1 versus LIMK2, at best
[6] = molecular target: LIMK2 (LIMK2_347–659, kinase catalytic domain) (Homo sapiens, UniProt P53671); type: biochemical
[7] = molecular target: PAK pLIMK1 (PAK-phosphorylated LIMK1) (Homo sapiens, UniProt P53667); test: RapidFire mass spectrometry kinase assay, PAK-phosphorylated LIMK1; conditions: 5 nM LIMK1 + 0.4 nM PAK1 kinase domain; mean ± SEM
In vivo DMPK, IV dosing = conditions: male, Sprague-Dawley, rat
Procedure: In vivo studies were carried out under appropriate licenses at Pharmidex (U.K.), Sygnature Discovery (U.K.), or Sai Life (India) using male Sprague-Dawley rats. […] Serial plasma samples were obtained at predetermined time points and then stored at −20 °C. Samples were then thawed, protein-precipitated with acetonitrile followed by LCMS/MS quantification.

Caco-2 permeability = type: in vitro ADME; conditions: for efflux ratio: Caco-2, Table S1
[8] = tested on: 468 kinases (scanMax panel); test: Eurofins/DiscoverX scanMax panel (KINOMEscan) kinome profile; type: binding; conditions: fraction of kinases bound >50%
[9] = Microsomal stability, human microsomes; conditions: pH 7.4
Procedure: (§3) After mixing thoroughly, the T = 0 sample (40 μL) was immediately quenched into an 80 μL ice-cold methanol containing a 4 μM internal standard (carbamazepine). Three further samples were quenched in the same way at T = 3, 9, and 30 min. Samples were incubated on ice for 30 min before centrifugation at 4700 rpm for 20 min. The supernatant was analyzed via LCMS/MS, and compound/carbamazepine peak area ratios were calculated to determine the rate of substrate depletion.

[10] = Microsomal stability, rat microsomes; conditions: pH 7.4
Procedure: as §3

Thermodynamic solubility = type: physicochemical; conditions: pH 7, PBS, 24 h room temperature; average of two experiments; read-out: aq. solubility
Procedure: The samples were then centrifuged at >10,000 rpm for 10 min to pellet any remaining solid. […] To prepare the standard, an 8-point, 1:3 dilution curve was prepared in DMSO with a top concentration of 1 mM, which was then diluted to 1:100 in acetonitrile containing 2 μM of carbamazepine. Standards and samples were analyzed via LCMS/MS. The compound carbamazepine peak area ratios were calculated, and the test article solubility was determined by interpolation from the standard curve.

[11] = 40 nM LIMK1 catalytic domain, 4 μM CFL1, 2 mM ATP, mean ± SEM, at least three experiments unless footnoted, pIC50 greater than 7.7 treat with caution
[12] = 15 nM LIMK2 catalytic domain, 4 μM CFL1, 2 mM ATP, mean ± SEM, pIC50 greater than 8.1 treat with caution

T1 sequence (P53667 whole entry, the tested form may be a part): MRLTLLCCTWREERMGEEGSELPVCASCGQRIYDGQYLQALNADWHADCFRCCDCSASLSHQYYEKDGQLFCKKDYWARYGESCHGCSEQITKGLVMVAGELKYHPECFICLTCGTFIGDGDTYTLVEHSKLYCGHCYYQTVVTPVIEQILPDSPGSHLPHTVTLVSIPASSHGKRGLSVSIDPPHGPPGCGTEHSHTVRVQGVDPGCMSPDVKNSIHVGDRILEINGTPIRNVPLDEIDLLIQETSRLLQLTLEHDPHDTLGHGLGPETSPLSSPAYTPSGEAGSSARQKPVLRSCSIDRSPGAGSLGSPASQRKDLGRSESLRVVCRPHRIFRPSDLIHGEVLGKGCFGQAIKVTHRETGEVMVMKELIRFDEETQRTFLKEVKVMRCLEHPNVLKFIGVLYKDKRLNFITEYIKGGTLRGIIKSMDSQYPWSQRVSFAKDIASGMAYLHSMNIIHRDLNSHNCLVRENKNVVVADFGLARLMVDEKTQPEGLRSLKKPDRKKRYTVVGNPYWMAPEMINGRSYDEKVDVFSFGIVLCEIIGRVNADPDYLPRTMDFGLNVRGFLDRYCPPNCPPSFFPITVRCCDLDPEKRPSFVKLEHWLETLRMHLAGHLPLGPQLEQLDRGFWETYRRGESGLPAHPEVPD
Sequence of PAK pLIMK2 (PAK-phosphorylated LIMK2) (P53671 326-638 limits assumed): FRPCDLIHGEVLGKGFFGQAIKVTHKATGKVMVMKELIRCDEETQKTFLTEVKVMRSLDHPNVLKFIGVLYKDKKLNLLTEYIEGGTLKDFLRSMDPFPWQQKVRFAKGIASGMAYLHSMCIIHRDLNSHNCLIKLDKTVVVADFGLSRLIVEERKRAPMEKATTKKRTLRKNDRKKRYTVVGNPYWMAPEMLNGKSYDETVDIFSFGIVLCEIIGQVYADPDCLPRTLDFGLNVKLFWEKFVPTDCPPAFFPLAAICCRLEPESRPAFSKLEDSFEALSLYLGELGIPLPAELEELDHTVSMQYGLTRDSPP
Sequence of LIMK2 (LIMK2_347–659, kinase catalytic domain) (P53671 326-638 limits assumed): as above
Sequence of PAK pLIMK1 (PAK-phosphorylated LIMK1) (P53667 330-637): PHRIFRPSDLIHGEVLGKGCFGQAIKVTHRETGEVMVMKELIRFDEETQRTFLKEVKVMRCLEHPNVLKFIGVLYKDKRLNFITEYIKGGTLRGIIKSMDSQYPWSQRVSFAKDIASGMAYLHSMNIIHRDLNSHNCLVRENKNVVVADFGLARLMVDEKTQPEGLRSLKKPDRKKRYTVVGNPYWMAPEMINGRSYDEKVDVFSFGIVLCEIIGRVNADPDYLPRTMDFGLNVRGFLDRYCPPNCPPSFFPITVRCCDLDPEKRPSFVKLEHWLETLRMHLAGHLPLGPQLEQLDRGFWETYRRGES
Sequence of LIMK1 (LIMK1_330–637, kinase catalytic domain) (P53667 330-637): as above
T2 sequence (P53671 whole entry, the tested form may be a part): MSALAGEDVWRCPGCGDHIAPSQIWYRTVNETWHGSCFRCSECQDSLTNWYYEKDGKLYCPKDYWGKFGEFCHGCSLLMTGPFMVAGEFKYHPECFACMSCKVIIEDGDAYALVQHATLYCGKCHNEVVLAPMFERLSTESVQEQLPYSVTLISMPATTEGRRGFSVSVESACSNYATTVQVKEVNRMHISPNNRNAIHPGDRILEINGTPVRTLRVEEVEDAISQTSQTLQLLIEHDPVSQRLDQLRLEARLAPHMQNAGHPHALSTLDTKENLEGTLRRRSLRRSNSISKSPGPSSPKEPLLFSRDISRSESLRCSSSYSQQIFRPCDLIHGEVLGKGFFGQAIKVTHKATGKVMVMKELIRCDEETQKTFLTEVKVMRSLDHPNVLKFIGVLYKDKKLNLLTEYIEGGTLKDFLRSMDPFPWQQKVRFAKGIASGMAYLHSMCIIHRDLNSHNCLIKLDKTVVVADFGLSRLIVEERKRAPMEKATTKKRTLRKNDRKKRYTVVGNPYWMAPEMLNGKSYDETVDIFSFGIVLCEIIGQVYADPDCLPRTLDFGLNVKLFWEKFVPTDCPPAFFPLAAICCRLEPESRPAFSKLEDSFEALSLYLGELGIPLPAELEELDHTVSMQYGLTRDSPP

Structure (SMILES)	NanoBRET pIC50 LIMK1 [1]	NanoBRET pIC50 LIMK2 [2]	RapidFire pIC50 PAK pLIMK2 [3]	IC50 [4] [nM]	RapidFire pIC50 LIMK1 [5, 11]	RapidFire pIC50 LIMK2 [6, 12]	RapidFire pIC50 PAK pLIMK1 [7]	further results
Cn1cc(-c2[nH]c3cc(NC(=O)[C@H](N)C4CCCCC4)cc4c3c2C=NNC4=O)cn1 [Compound 16]	6.40 ± 0.04	6.56 ± 0.02	5.47 ± 0.04	> 10000	6.09 ± 0.07	<5	6.76 ± 0.12	
CC(C)C(=O)Nc1ncc(-c2cc(C(F)F)nn2-c2c(Cl)cccc2Cl)s1 [Compound 4]								Vd (In vivo DMPK, IV dosing): 2 L/kg; half-life (In vivo DMPK, IV dosing; 0.2 mg/kg): 1.1 h; Papp A→B (Caco-2 permeability; human, Caco-2, A – B): 8.8 ×10⁻⁶ cm/s; Papp B→A (Caco-2 permeability; human, Caco-2, B – A): 12.4 ×10⁻⁶ cm/s
CN1C(=O)[C@@H](N2CCc3c(nn(Cc4ccccc4)c3C(N)=O)C2=O)COc2cc(Cl)ccc21 [Compound 17]								kinome S50 ([8]; 1000 nM): 0.01 (468, 1,000 nM)
Cc1c[nH]c2ncnc(N3CCC(CN)(C(=O)Nc4cccc(OC(=O)N(C)C)c4)CC3)c12 [Compound 7]		8.17 ^d	6.51 ± 0.04					kinome S50 ([8]; 300 nM): 0.13 (468, 300 nM); microsomal CLint at 0.5 h, 4 µM [9]: 3 µL/min/mg; Vd (In vivo DMPK, IV dosing): 6.4 L/kg; clearance (In vivo DMPK, IV dosing): 98.1 mL/min/kg; half-life (In vivo DMPK, IV dosing; 0.5 mg/kg): 1.3 h; microsomal CLint at 0.5 h, 4 µM [10]: 50 µL/min/mg; solubility at 24 h (Thermodynamic solubility): 451 µM (≈ 204 µg/mL)
Cc1c[nH]c2ncnc(N3CCN(C(=O)Nc4cccc(OC(=O)N(C)C)c4)[C@@H](C)C3)c12 [Compound 6]	8.28 ± 0.08	8.61 ± 0.04	7.68 ± 0.07	3.02			7.68 ± 0.04	RapidFire pIC50 LIMK1 [5]: 8.70 ± 0.07; RapidFire pIC50 LIMK2 [6]: 8.74 ± 0.12
CCc1cccc(CC)c1NC(=O)N1Cc2n[nH]c(NC(=O)c3ccc(N4CCN(C)CC4)cc3)c2C1 [Compound 11]	<5	<5	<5	> 10000	6.39 ± 0.03	5.10 ± 0.04	6.24 ± 0.04	preference between LIMK1 and LIMK2 [5]: ~10 fold; efflux ratio (Caco-2 permeability): high efflux; efflux ratio (Caco-2 permeability; human, read-out: Efflux ratio): 279
CCNC(=O)Nc1ncc(-c2cc(-c3c(C)cc(OC)cc3C)nc(-c3cnccn3)n2)s1 [Compound 3]	6.45 ± 0.14	6.33 ± 0.12	6.15 ± 0.04	457	7.25 ± 0.06	6.87 ± 0.10	5.64 ± 0.06	
CCn1c(=O)c(-c2ccc(Cl)cc2Cl)cc2cnc(Nc3ccc(N4CCNCC4)c(F)c3)nc21 [Compound 1]								kinome S50 ([8]; 1000 nM): 0.54 (468, 1000 nM)
Cc1cc(Nc2cc(CN3CCOCC3)c3nc(C)c(Cc4ccc(Cl)cc4F)n3n2)n[nH]1 [Compound 13, gandotinib]	<5	<5	5.22 ± 0.05	> 10000	6.40 ± 0.03	<5	5.98 ± 0.06	preference between LIMK1 and LIMK2 [5]: ~10 fold; efflux ratio (Caco-2 permeability): high efflux; efflux ratio (Caco-2 permeability; human, read-out: Efflux ratio): 10.2
O=C(Nc1ncc(-c2cc(C(F)F)nn2-c2c(Cl)cccc2Cl)s1)C1CC1 [Compound 2]	7.09 ± 0.08	7.79 ± 0.02	6.56 ± 0.06	39.8	7.75 ± 0.04	7.52 ± 0.04	7.00 ± 0.03	
Cc1cc(Nc2nc(N[C@@H](C)c3ccc(F)cc3)c(C#N)cc2F)n[nH]1 [Compound 12]	<5	<5	5.18 ± 0.03	> 10000			6.52 ± 0.01	RapidFire pIC50 LIMK1 [5]: 6.82 ± 0.06; preference between LIMK1 and LIMK2 [5]: ~10 fold; RapidFire pIC50 LIMK2 [6]: 5.71 ± 0.14; efflux ratio (Caco-2 permeability; human, read-out: Efflux ratio): 1.01
Cc1c[nH]c2ncnc(-c3ccc(NC(=O)N(CCO)c4ccccc4)cc3)c12 [Compound 8]								microsomal CLint at 0.5 h, 4 µM [9]: 8 µL/min/mg; clearance (In vivo DMPK, IV dosing): 4.2 mL/min/kg; half-life (In vivo DMPK, IV dosing): 2.2 h; Vd (In vivo DMPK, IV dosing; 1 mg/kg): 0.5 L/kg; microsomal CLint at 0.5 h, 4 µM [10]: 18 µL/min/mg; solubility at 24 h (Thermodynamic solubility): 28 µM (≈ 10.8 µg/mL)
